From US9307765B2, “Selective weed control using D-napropamide” (UPL Limited, priority 2013, dated 2016)
Several values for one entry are separate records, joined by “and”; a condition that tells them apart may be missing. Identical values can stand only once.

Columns and labels:
Type in all cases: in vivo
[1] = system: Digitaria sanguinalis; assay: Plot trial, % control of Digitaria sanguinalis; details: 9 L/Ha of 450 g/L formulation
Experimental: (§1) Field trials were conducted on various moncotyledonous weeds and dicotyledonous weeds and the effect of D-isomer of Napropamide was studied to understand the selective and effective control of dicotyledonous weeds over monocotyledonous weeds. The effect of D-isomer of Napropamide in comparison to racemic napropramide and untreated was studied, which is concluded hereinbelow:
(§2) Several small plot replicated trials were carried out to evaluate and/or compare the efficacy of D-Napropamide against a range of indicated annual broadleaved and grass weed species in the indicated crops. No problems were encountered during mixing or application of any of the product formulations or tank mixtures under test.
In each of the reported data, the homogeneity of variance was tested by Bartlett's test. Wherever this test indicated no homogeneity of variance, the transformed values were used for analysis of variance. Assessment data was then analyzed using a two-way analysis of variance (ANOVA) on untransformed and transformed data. The probability of no significant differences occurring between treatment means was calculated as the F probability value (p(F)). A mean comparison test was only performed and reported when the treatment of F that was calculated during analysis of variance was significant at the observed significance level specified for the mean comparison test. Where the data was transformed, treatment means in the reports were presented in their detransformed state, with the appropriate letter test and mean descriptions (LSD and standard deviation) derived from the transformed ANOVA. […]

[2] = system: Stellaria media; assay: Pre-emergence glasshouse pot study, seedling emergence and growth (OECD guideline); details: for EC50 based on the final fresh weights: Stellaria media (dicot), 21 day assessment, probit; for Mean Final Foliar Fresh Weights Expressed as Percentage of Untreated Controls / Mean Final Foliar Fresh Weights: Stellaria media; for Mean Final Foliar Fresh Weights: 21 days after 50% emergence, untreated 1.44
Experimental: (§3) A study was carried out to determine the relative biological activity of the D and L isomers of Napropamide when applied pre-emergence to one monocotyledon and one dicotyledon species. Napropamide, containing 450 grammes active substance per liter (g a.s./L) formulated as a suspension concentrate and the D-isomer of Napropamide (1000 g a.s./L) were applied at a range of concentrations from 0.1575 to 1.26 kilograms of active substance per hectare (kg a.s/Ha).
(§4) EC50 values in kg a.s./Ha were calculated from the dose response data using final foliar fresh weight data for each species and was used to determine the relative biological activity of the D and L isomers of Napropamide. The methodology was based on the OECD guideline […], according to the revision of July 2006 for seedling emergence and growth. The study was conducted to GLP standards.
(§5) Seeds were sown directly into non-porous plastic pots containing the following mix of soil: 10 L of sterile loam+4 L of coarse grit (washed quartztite, nominal 4 mm)+10 L of sand. This soil mix was characterized as a sandy loam with an organic carbon content of 1.5% and pH of 7.2. Details of the plant species, number of seeds per pot and pot size are shown below. All seeds were sown 1-2 cm deep.
(§6) The highest concentration of Napropamide was prepared by measuring a calculated volume by weight and diluting with tap water to the full required volume. Lower concentrations were prepared by serial dilution with water. D-Napropamide was prepared by dissolving the calculated weight in acetone and adding water to give the full required volume in 50:50 acetone+water. Lower concentrations were prepared by serial dilution with 50:50 acetone+water. D-Napropamide dissolved completely.
(§7) The sprayer was calibrated within 24 hours prior to application by weight of 15 applications of water to six 86 mm ID petri dishes. The total weight of water over a known area enabled a simple calculation giving the volume rate to be made. The volume rate achieved was within the range specified in the study plan (200 L/Ha±10%).
(§8) Replication was 5 pots per treatment for each plant species. After application, pots were placed on the bench in glasshouse in randomized blocks. Plants were assessed for emergence, mortality and visual injury (expressed as a percentage of the untreated control: 0%=no injury, 1-39%=slight injury, 40-69%=moderate injury, 70-99%=severe injury and 100%=all plants dead) at 14 and 21 days after 50% emergence in the untreated controls. Fresh weights (biomass above soil level) were also recorded 21 days after 50% emergence in the untreated controls. Plants were fully turgid at the time of harvest.
(§9) Assessment data was recorded on pro-forma sheets and entered into Gylling ARM 7 software. EC50 values were calculated using audited means data from the final assessments (21 day). Gylling ARM 7.0 software used a simple probit—maximum likelihood estimation method with 99% confidence level. The EC50 values generated were then visually checked against the means data table to verify they appeared correct.

[3] = system: Poa annua; assay: as above; details: for Mean Final Foliar Fresh Weights Expressed as Percentage of Untreated Controls / Mean Final Foliar Fresh Weights: Poa annua; for Mean Final Foliar Fresh Weights: 21 days after 50% emergence, untreated 0.90
Experimental: as §3, §4, §5, §6, §7, §8, §9

[4] = system: Senecio vulgaris; assay: Field trial in winter oilseed rape, pre-emergence, % control
Experimental: as §1, §2
(§10) In each of the reported data, the homogeneity of variance was tested by Bartlett's test. Wherever this test indicated no homogeneity of variance, the transformed values were used for analysis of variance. Assessment data was then analyzed using a two-way analysis of variance (ANOVA) on untransformed and transformed data. The probability of no significant differences occurring between treatment means was calculated as the F probability value (p(F)). A mean comparison test was only performed and reported when the treatment of F that was calculated during analysis of variance was significant at the observed significance level specified for the mean comparison test. Where the data was transformed, treatment means in the reports were presented in their detransformed state, with the appropriate letter test and mean descriptions (LSD and standard deviation) derived from the transformed ANOVA.
(§11) Trials were conducted to evaluate the selectivity and efficacy of D-isomer of Napropamide when applied pre-emergence to oilseed rape crop. The % control of weed was assessed at regular intervals.

[5] = system: Fallopia convolvulus; assay: as above
Experimental: as §1, §2, §10, §11

[6] = system: Cirsium arvense; assay: as above
Experimental: as §1, §2, §10, §11

[7] = system: Veronica persica; assay: as above
Experimental: as §1, §2, §10, §11

[8] = system: Aperaspica-venti; assay: as above
Experimental: as §1, §2, §10, §11

[9] = system: Matricaria sp.; assay: Field trial in winter oilseed rape, pre-emergence, % control and ground cover; details: 450 g/L @ 2.8 L/Ha
Experimental: as §1, §2, §10, §11

[10] = system: Ranunculus repens; assay: Field trial on strawberries, pre-emergence, visual % control
Experimental: as §1, §2, §10
Trial was carried out on strawberries to evaluate the efficacy and selectivity of D-Napropamide and equivalent rate of Devrinol (Napropramide) applied pre-emergence. […] The percentage control of D-isomer of Napropamide and Devrinol was assessed in comparison to the untreated after 224 days after application.

[11] = system: Senecio vulgaris; assay: as above
Experimental: as §1, §2, §10
(§12) Trial was carried out on strawberries to evaluate the efficacy and selectivity of D-Napropamide and equivalent rate of Devrinol (Napropramide) applied pre-emergence. […]

[12] = system: Papaver rhoeas; assay: as above
Experimental: as §1, §2, §10, §12

For `CCN(CC)C(=O)C(C)Oc1cccc2ccccc12` (racemic) [Napropamide, N,N-diethyl-2-(α-naphthoxy)propionamide], the “% Control” value ([1]; 16 DAA) was 12.50%, the “% Control” value ([1]; 33 DAA) was 15.00% and the “EC50 based on the final fresh weights” value [2] was 0.22 kg/Ha. The “Mean Final Foliar Fresh Weights Expressed as Percentage of Untreated Controls” value ([2]; rate 0.1575 kg/Ha) was 70%, the “Mean Final Foliar Fresh Weights” value ([2]; rate 0.315 kg/Ha pre-emergence) was 0.3 g and the “Mean Final Foliar Fresh Weights” value ([2]; rate 0.63 kg/Ha pre-emergence) was 0.328 g. For the same compound, the “Mean Final Foliar Fresh Weights Expressed as Percentage of Untreated Controls” value ([2]; rate 1.26 kg/Ha) was 16%, the “EC50 based on the final fresh weights” value ([3]; Poa annua (monocot), 21 day assessment, probit) was 0.72 kg/Ha and the “Mean Final Foliar Fresh Weights Expressed as Percentage of Untreated Controls” value ([3]; rate 0.1575 kg/Ha) was 100%. The “Mean Final Foliar Fresh Weights” value ([3]; rate 0.315 kg/Ha pre-emergence) was 0.57 g, the “Mean Final Foliar Fresh Weights” value ([3]; rate 0.63 kg/Ha pre-emergence) was 0.98 g and the “Mean Final Foliar Fresh Weights Expressed as Percentage of Untreated Controls” value ([3]; rate 1.26 kg/Ha) was 23%. For the same compound, the “Percentage Control at 63 DAA” value ([4]; 450 g/L @ 1.6 L/Ha) was 36.96%, the “Percentage Control at 63 DAA” value ([4]; 450 g/L @ 2.8 L/Ha) was 4.65% and the “Percentage Control at 63 DAA” value ([5]; 450 g/L @ 1.6 L/Ha) was 30.00%. For the same compound, the “Percentage Control at 63 DAA” value ([5]; 450 g/L @ 2.8 L/Ha) was 0.00%, the “Mean Percentage Control” value ([6]; 450 g/L @ 2.8 L/Ha) was 20.00% and the “Conclusion: control of the weed at equivalent dosage” value ([6]; Cirsium arvense, dicot) was “negligible control”. For the same compound, the “Percentage Control at 63 DAA” value ([7]; 450 g/L @ 1.6 L/Ha) was 75.00%, the “Percentage Control at 63 DAA” value ([7]; 450 g/L @ 2.8 L/Ha) was 75.00% and the “Percentage Control at 63 DAA” value ([8]; 450 g/L @ 1.6 L/Ha) was 40.00%. For the same compound, the “Percentage Control at 63 DAA” value ([8]; 450 g/L @ 2.8 L/Ha) was 76.25% and 67.50%, the “Percentage ground cover %, value in brackets (untreated 0.0%)” value [9] was “(52.8%)” and the “Percentage Control at 49 DAA” value ([9]; oilseed rape) was 61.25%. The “Percentage ground cover %” value ([9]; untreated 4.50) was 2.13%, the “Percentage Control at 224 DAA” value ([10]; 5 L/Ha of 450 g/L formulation) was 33.3% and the “Percentage Control at 224 DAA” value ([10]; 7 L/Ha of 450 g/L formulation) was 66.7%. For the same compound, the “Percentage Control at 224 DAA” value ([10]; 14 L/Ha of 450 g/L formulation) was 83.3%, the “Percentage Control at 70 DAA” value ([11]; 5 L/Ha of 450 g/L formulation) was 37.5% and the “Percentage Control at 70 DAA” value ([11]; 7 L/Ha of 450 g/L formulation) was 25.0%. The “Percentage Control at 70 DAA” value ([11]; 14 L/Ha of 450 g/L formulation) was 12.5%, the “Percentage Control at 70 DAA” value ([12]; 5 L/Ha of 450 g/L formulation) was 62.5% and the “Percentage Control at 70 DAA” value ([12]; 7 L/Ha of 450 g/L formulation) was 81.7%. For the same compound, the “Percentage Control at 70 DAA” value ([12]; 14 L/Ha of 450 g/L formulation) was 82.5%.
`CCN(CC)C(=O)[C@H](C)Oc1cccc2ccccc12` [L-Napropamide, reference compound] was tested, and the “EC50 based on the final fresh weights” value [2] was 1.26 kg/Ha.
